Reference: US9845335B2, “Sofosbuvir in crystalline form and process for its preparation” (HC-PHARMA AG, priority 2014, dated 2017)

Columns and labels:
Assay type in all cases: physicochemical
[1] = Particle size distribution (PSD)
[2] = Stability and hygroscopicity of the crystalline form; settings: statement in words, no data
[3] = Powder properties of the crystalline form (bulk and tapped density, compressibility, Hausner ratio)
[4] = product of Example 1 (from isobutyl methyl ketone)

## CC(C)OC(=O)[C@H](C)N[P@](=O)(OC[C@H]1O[C@@H](n2ccc(=O)[nH]c2=O)[C@](C)(F)[C@@H]1O)Oc1ccccc1 [Sofosbuvir Form α]
[1]; general characterisation of the form
  PSD: size of the 90% of the particles: 10 to 50 μm
[1]; [4]
  PSD d(0.1): 1.831 μm
  PSD d(0.5): 5.263 μm
  PSD d(0.9): 20.369 μm
[2]
  Hygroscopicity: not hygroscopic
  Stability of the crystalline form: stable
[3]
  Bulk Density: 0.22 g/mL
  Compressibility index: 24.4
  Hausner ratio: 1.32
  Tapped Density: 0.29 g/mL
